Consider two compounds from publication PMC11207335, “In Vitro Metabolism and Transport Characteristics of Zastaprazan” (Pharmaceutics, 2024).

Where two headings read alike, the source gives them in different places.

One data set concerns the target T1, P-gp (Homo sapiens, UniProt P08183).
T1 construct: host or cells: LLC-PK1 (porcine kidney cells)
Put plainly: Permeability in LLC-PK1-P-gp cells. In kind it is in vitro ADME. The note with it: for Substrate: P-gp; for Papp A→B at 1 h, 4 µM / Papp B→A at 1 h, 4 µM / efflux ratio at 1 h, 4 µM: pig, LLC-PK1-P-gp; for efflux ratio at 1 h, 4 µM: read-out: ER. The method, then: LLC-PK1-P-gp or BCRP cells were seeded on collagen-coated 24-transwell membranes at a density of 2.5 × 10^5 cells/mL and maintained at 37 °C in a humidified atmosphere with 5% CO2/95% air for 5 days in Medium 199 supplemented with 10% […], 50 μg/mL of gentamycin, and 50 μg/mL of hygromycin. The culture medium was replaced every other day. On the day of the experiment, the growth medium was discarded, and the attached cells were washed with prewarmed HBSS (pH 7.4) and preincubated with HBSS for 20 min at 37 °C. […] Aliquots (0.1 mL) in the apical side were transferred to clean tubes every 15 min for 1 h and replaced with an equal volume of fresh HBSS.
LLC-PK1-P-gp or BCRP cells were seeded on collagen-coated 24-transwell membranes at a density of 2.5 × 10^5 cells/mL and cultured for 5 days. The growth medium was discarded on the day of the experiment, and the attached cells were washed with prewarmed HBSS (pH 7.4) and preincubated with HBSS for 20 min at 37 °C. […] Aliquots (0.1 mL) in the apical side were transferred to clean tubes every 15 min for 1 h and replaced with an equal volume of fresh HBSS. Aliquots (30 μL) of each sample were vortex-mixed with 90 μL of IS solution for 1 min, and then centrifugation was performed at 13,500 rpm at 4 °C for 5 min. Aliquots (5 μL) of the supernatant were injected into the LC-MS/MS for analysis.
The permeability (Papp) was calculated from the following equation [23, 24]: Papp(cm/s)=transport ratenmol/s/JP−1366 or M1 concentration (μM)×surface area of membrane (cm^2)

A short description of data set [1]: Apparent permeability in Caco-2 cells. In kind it is in vitro ADME. The note with it: human; for Papp A→B at 1 h, 4 µM / Papp B→A at 1 h, 4 µM: Caco-2, pH 7.4. The method, then:
Caco-2 cells (passage no. 41–42) were grown in tissue culture flasks containing Dulbecco’s Modified Eagle Medium supplemented with 20% FBS, 1% nonessential amino acids, and 1% penicillin–streptomycin. […] The culture medium was replaced every other day. On the day of the experiment, the growth medium was discarded, and the attached cells were washed with prewarmed HBSS (pH 7.4) and preincubated with HBSS for 20 min at 37 °C. […] Aliquots (30 μL) of each sample were vortex-mixed with 90 μL of IS solution for 1 min, and then centrifugation was performed at 13,500 rpm at 4 °C for 5 min. Aliquots (5 μL) of the supernatant were injected into the LC-MS/MS for analysis.
(Passage across Caco-2 layers is used to estimate intestinal permeability.)

Another data set addresses T2, OCT2 (Homo sapiens, UniProt O15244).
T2 sequence (O15244 1-555): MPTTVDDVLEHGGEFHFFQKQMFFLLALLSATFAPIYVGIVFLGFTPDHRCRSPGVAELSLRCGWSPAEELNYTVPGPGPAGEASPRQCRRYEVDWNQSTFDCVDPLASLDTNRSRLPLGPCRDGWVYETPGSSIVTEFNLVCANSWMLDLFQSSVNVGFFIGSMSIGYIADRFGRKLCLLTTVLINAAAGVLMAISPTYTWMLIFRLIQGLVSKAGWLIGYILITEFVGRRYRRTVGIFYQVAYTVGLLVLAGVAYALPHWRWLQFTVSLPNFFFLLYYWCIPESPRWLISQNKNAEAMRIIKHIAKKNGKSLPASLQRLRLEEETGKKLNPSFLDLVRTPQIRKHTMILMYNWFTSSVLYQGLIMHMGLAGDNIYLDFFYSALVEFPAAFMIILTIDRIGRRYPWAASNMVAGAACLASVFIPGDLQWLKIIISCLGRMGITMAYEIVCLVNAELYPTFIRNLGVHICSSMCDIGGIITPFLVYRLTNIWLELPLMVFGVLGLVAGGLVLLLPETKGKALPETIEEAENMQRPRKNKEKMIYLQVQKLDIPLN
Put plainly: Uptake into HEK293 cells expressing OCT2. The note with it: for Uptake Rate / Fold-Change: 6 μM; for Substrate: OCT2; for Fold-Change: vs HEK293-mock.

A further data set deals with T3, MATE1 (Homo sapiens, UniProt Q96FL8).
T3 sequence (Q96FL8 1-570): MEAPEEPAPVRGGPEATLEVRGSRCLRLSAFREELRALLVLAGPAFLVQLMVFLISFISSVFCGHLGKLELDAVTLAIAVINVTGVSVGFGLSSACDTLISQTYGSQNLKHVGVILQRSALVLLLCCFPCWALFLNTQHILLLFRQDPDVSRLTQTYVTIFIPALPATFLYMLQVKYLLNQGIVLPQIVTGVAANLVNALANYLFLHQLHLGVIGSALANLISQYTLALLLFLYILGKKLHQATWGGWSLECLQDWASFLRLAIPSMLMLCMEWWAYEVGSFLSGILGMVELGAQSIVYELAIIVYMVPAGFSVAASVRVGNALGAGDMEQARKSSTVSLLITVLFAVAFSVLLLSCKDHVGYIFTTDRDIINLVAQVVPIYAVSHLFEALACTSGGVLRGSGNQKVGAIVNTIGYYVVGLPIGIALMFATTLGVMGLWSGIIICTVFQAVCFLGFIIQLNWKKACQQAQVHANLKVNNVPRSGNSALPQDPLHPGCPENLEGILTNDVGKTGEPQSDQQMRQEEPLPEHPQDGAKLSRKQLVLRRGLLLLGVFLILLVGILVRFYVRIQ
The data set can be described thus: Uptake into HEK293 cells expressing MATE1. The note with it: for Uptake Rate / Fold-Change: 6 μM; for Substrate: MATE1; for Fold-Change: vs HEK293-mock.

The mark [2] stands for this setting: pH 7.4, with CsA 20 μM, CsA 20 μM.
Setting [3] is: HEK293-MATE1, cimetidine 100 μM.

T1 sequence (P08183 whole entry): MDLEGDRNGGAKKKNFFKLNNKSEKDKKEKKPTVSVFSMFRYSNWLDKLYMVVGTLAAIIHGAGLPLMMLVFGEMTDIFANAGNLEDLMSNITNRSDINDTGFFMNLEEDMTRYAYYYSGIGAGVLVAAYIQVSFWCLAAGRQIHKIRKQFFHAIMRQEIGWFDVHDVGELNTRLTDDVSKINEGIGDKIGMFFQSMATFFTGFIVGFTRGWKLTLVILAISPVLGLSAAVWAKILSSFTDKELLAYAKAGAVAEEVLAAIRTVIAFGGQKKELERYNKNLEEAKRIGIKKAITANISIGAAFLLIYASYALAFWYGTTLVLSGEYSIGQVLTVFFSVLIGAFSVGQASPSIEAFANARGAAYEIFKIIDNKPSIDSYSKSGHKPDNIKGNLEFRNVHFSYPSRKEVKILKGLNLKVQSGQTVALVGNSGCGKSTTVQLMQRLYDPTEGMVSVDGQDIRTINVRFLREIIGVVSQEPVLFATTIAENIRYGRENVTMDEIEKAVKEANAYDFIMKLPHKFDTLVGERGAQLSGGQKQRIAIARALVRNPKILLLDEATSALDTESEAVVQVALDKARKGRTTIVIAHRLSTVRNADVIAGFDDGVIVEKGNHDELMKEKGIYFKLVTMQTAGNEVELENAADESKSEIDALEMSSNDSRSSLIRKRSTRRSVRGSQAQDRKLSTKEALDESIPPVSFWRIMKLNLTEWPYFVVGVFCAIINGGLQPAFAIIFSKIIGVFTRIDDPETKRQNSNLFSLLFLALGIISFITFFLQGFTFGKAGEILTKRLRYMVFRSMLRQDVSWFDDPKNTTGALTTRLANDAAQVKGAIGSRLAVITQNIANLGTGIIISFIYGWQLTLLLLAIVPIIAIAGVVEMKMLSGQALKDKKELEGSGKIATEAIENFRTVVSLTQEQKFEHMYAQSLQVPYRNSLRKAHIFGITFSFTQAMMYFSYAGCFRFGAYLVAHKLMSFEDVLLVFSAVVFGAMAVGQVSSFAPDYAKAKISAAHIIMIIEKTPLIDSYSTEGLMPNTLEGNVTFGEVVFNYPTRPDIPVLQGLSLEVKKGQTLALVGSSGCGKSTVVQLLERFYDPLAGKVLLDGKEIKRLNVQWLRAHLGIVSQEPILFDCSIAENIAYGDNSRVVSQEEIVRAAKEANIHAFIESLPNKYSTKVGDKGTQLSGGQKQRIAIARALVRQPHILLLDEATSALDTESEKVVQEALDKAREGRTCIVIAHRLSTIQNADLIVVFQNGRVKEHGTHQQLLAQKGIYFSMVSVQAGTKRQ

`Cc1cccc(C)c1CNc1cc(C(=O)N2CCC2)cn2c(C)c(C)nc12` [JP-1366, 1-azetidinyl(8-(((2,6-dimethylphenyl)methyl)amino)-2,3-dimethylimidazo(1,2-a)pyridin-6-yl)methanone]: the Substrate entry at P-gp, at OCT2 and at MATE1 was “No” each time. For the same compound, the Papp A→B at 1 h, 4 µM turned out to be 20.7 ± 1.31 ×10⁻⁶ cm/s at P-gp (setting [2]); 20.3 ± 0.53 ×10⁻⁶ cm/s at P-gp (pH 7.4, Control); 23 ± 5.79 ×10⁻⁶ cm/s in data set [1]. Further, the Papp B→A at 1 h, 4 µM on P-gp (setting [2]) stood at 32 ± 0.94 ×10⁻⁶ cm/s; at P-gp (pH 7.4, Control), 25.6 ± 1.71 ×10⁻⁶ cm/s; in data set [1], 10.7 ± 1.77 ×10⁻⁶ cm/s. The “Uptake Rate” value at OCT2 (HEK293-OCT2, cimetidine 100 μM) turned out to be 49.28 ± 4.50 pmol/min/10^5 Cells; at OCT2 (HEK293-OCT2, control) it was 51.71 ± 1.36 pmol/min/10^5 Cells; at MATE1 (setting [3]), 78.57 ± 5.38 pmol/min/10^5 Cells; on MATE1 (HEK293-MATE1, control) it was 65.32 ± 4.13 pmol/min/10^5 Cells.
`Cc1cccc(CO)c1CNc1cc(C(=O)N2CCC2)cn2c(C)c(C)nc12` [M1, azetidin-1-yl(8-((2-(hydroxymethyl)-6-methyl-benzyl)amino)-2,3-dimethylimidazo[1,2-a]pyridin-6-yl)methanone]: the Substrate result is recorded as “Yes” at P-gp, “No” at OCT2 and “No” at MATE1. The Papp A→B at 1 h, 4 µM stood at 18.5 ± 0.96 ×10⁻⁶ cm/s on P-gp (setting [2]); 6.99 ± 0.6 ×10⁻⁶ cm/s at P-gp (pH 7.4, Control); 3.36 ± 0.24 ×10⁻⁶ cm/s in data set [1]. Moreover, the Papp B→A at 1 h, 4 µM turned out to be 62.8 ± 5.26 ×10⁻⁶ cm/s on P-gp (setting [2]); 99.3 ± 1.66 ×10⁻⁶ cm/s on P-gp (pH 7.4, Control); 20.3 ± 1.51 ×10⁻⁶ cm/s in data set [1]. Also, the efflux ratio at 1 h, 4 µM at P-gp (setting [2]) stood at 3.4; at P-gp (pH 7.4, Control), 14.2; in data set [1] (pH 7.4, Caco-2, mean Papp,BA / mean Papp,AB, read-out: ER), 6. In addition, the “Uptake Rate” value at OCT2 (HEK293-OCT2, cimetidine 100 μM) worked out at 49.28 ± 4.50 pmol/min/10^5 Cells; on OCT2 (HEK293-OCT2, control), 51.71 ± 1.36 pmol/min/10^5 Cells; at MATE1 (setting [3]) it was 78.57 ± 5.38 pmol/min/10^5 Cells; at MATE1 (HEK293-MATE1, control), 65.32 ± 4.13 pmol/min/10^5 Cells. Besides, the Fold-Change was 1.0 on OCT2 (HEK293-OCT2, cimetidine 100 μM); 1.0 on OCT2 (HEK293-OCT2, control); 1.5 at MATE1 (setting [3]); 1.3 at MATE1 (HEK293-MATE1, control).

The Papp A→B is the apparent permeability from the apical to the basolateral side of a cell layer. Usually Papp B→A stands for how fast a substance crosses the layer from the basolateral side.
